From US20110053897A1 (IRM LLC, priority 2009, published 2011)
Read-outs that look alike come from different tables or passages of the source.

Target: T1, Syk kinase (Homo sapiens, UniProt P43405)
T1 construct: purchased
Experiment: Syk kinase inhibition, Caliper LabChip off-chip mobility-shift kinase assay
Type: biochemical
Conditions: read-out: Syk Enzyme IC50
Method in brief: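 Purified Syk pre-incubated 15 min with compound in 100 mM HEPES pH 7.5, 1 mM DTT, 10 mM MgCl2 or MnCl2, 0.002% Brij-35, then 1.5 μM fluorescein peptide and ATP at apparent KM added; 1–1.5 h at room temperature, 4% DMSO, EDTA stop. Microfluidic mobility-shift product/substrate conversion gave % inhibition; IC50 from 12-point series (10–0.00003 μM) by 4-parameter fit.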

Row | SMILES | IC50 [nM] | IC50 (Caliper LabChip assay) [nM]
1 | Cc1ccnc(Nc2cc3cc[nH]c(=O)c3c(NC3CCOCC3)n2)c1 [compound 293] | 145 | 
2 | Cc1cc(Nc2nc(Nc3ccc(S(N)(=O)=O)cn3)cc3cc[nH]c(=O)c23)ccc1C1CCN(C2CC2)CC1 [compound 258] | 61 | 
3 | COC[C@H](C)Nc1nc(-c2cnc(N)nc2)cc2cc[nH]c(=O)c12 [compound 448] | 125 | 
4 | CC(C)(C)Nc1nc(-c2cnc(N)nc2)cc2ccn(CC(=O)O)c(=O)c12 [compound 667] |  | 23
5 | Cc1nc(N)ncc1-c1cc2cc[nH]c(=O)c2c(Nc2ccc([C@H]3CC[C@H](N4CCOCC4)CC3)cc2)n1 [compound 101] | 668 | 
6 | O=c1[nH]ccc2cc(-c3cnccn3)nc(Nc3ccc4c(c3)C3CNCC4C3)c12 (stereo not shown) [compound 98] | 1520 | 
7 | CCn1ccc2cc(Nc3nccc(O)n3)nc(N[C@@H]3CC[C@H](O)C3)c2c1=O [compound 958] |  | 22
8 | CCn1ccc2cc(Nc3cnccn3)nc(N[C@H]3CCOC3)c2c1=O [compound 355] | 37 | 
9 | CN(C)Cc1n[nH]c2cc(Nc3nc(-c4cncc(C(=O)N5CCOCC5)c4)cc4cc[nH]c(=O)c34)ccc12 [compound 205] | 104 | 
10 | Cc1cc(Nc2nc(Nc3ccc(C#N)cn3)cc3cc[nH]c(=O)c23)ccc1N1CCO[C@H](C)C1 [compound 557] | 3350 | 
11 | Cc1cc(Nc2nc(-c3cncc(C(=O)N4CCOCC4)c3)cc3cc[nH]c(=O)c23)ccc1C1CCN(C2CC2)CC1 [compound 208] | 112 | 
12 | COC(=O)CN1CCC(c2ccc(Nc3nc(-c4cncc(OC)n4)cc4cc[nH]c(=O)c34)cc2C)CC1 [compound 157] | 99 | 
13 | Cc1ccnc(Nc2cc3cc[nH]c(=O)c3c(NC[C@@H]3CCCO3)n2)c1 [compound 505] | 63 | 
14 | CC(C)(C)Nc1nc(Nc2cc(OCCO)ncn2)cc2ccn(C[C@H](O)CO)c(=O)c12 [compound 642] |  | 29
15 | CC(C)(C)Nc1nc(Nc2cc(CN3CCCCC3)ccn2)cc2ccn(CCO)c(=O)c12 [compound 604] |  | 251
16 | CC(C)(C)Nc1nc(Nc2cc(C3(O)CCC3)ccn2)cc2ccn(CCO)c(=O)c12 [compound 870] |  | 76
17 | CCn1ccc2cc(Nc3cnccn3)nc(N[C@@H]3CC[C@H](CO)C3)c2c1=O [compound 795] |  | 51
18 | NC(=O)Cn1ccc2cc(-c3cnc(N)nc3)nc(N[C@H]3C[C@@H](CO)C3)c2c1=O [compound 746] |  | 44
19 | CC(C)(C)Nc1nc(Nc2cnccn2)cc2ccn(CC(O)CO)c(=O)c12 (stereo not shown) [compound 664, 8-(tert-butylamino)-2-(2,3-dihydroxypropyl)-6-(pyrazin-2-ylamino)-2,7-naphthyridin-1(2H)-one] |  | 7
20 | CC(C)(C)Nc1nc(-c2cnc(N)nc2)cc2ccn(CC(O)CO)c(=O)c12 (stereo not shown) [compound 929] |  | 8
21 | Cc1cc(Nc2nc(Nc3cc(C(F)(F)F)ccn3)cc3cc[nH]c(=O)c23)ccc1C1CCN(C2CC2)CC1 [compound 255] | 434 | 
22 | C[C@@H]1CN(c2ccc(Nc3nc(/C=C/C(=O)O)cc4cc[nH]c(=O)c34)cn2)CCO1 [compound 241] | 208 | 
23 | CCN1CCN(C2CCC(c3ccc(Nc4nc(-c5cncnc5)cc5cc[nH]c(=O)c45)cc3)CC2)CC1 (stereo not shown) [compound 108] | 116 | 
24 | Nc1nccc(-c2cc3cc[nH]c(=O)c3c(Nc3ccc(N4CCOCC4)cc3)n2)n1 [compound 53] | 494 | 

Row | SMILES | IC50 [nM] | IC50 (Caliper LabChip assay) [nM]
25 | COc1ncc(-c2cc3cc[nH]c(=O)c3c(Nc3ccc(CCN4CCNC(=O)C4)cc3)n2)cn1 [compound 151] | 201 | 
26 | CCn1ccc2cc(Nc3cc(C(C)(C)O)ccn3)nc(NC3(C)CCC3)c2c1=O [compound 702] |  | 85
27 | O=c1[nH]ccc2cc(-c3cncc(NC4CC4)n3)nc(Nc3ccc(N4CCOCC4)cc3)c12 [compound 48] | 83 | 
28 | CC(C)n1ccc2cc(-c3cnc(N)nc3)nc(N[C@H]3CC[C@@H](CO)C3)c2c1=O [compound 1030] |  | 48
29 | COCCn1ccc2cc(Nc3cnccn3)nc(NC(C)C)c2c1=O [compound 319] | 137 | 
30 | CC(C)n1ccc2cc(Nc3cnccn3)nc(NC(C)(C)CO)c2c1=O [compound 820] |  | 84
31 | COc1cncc(-c2cc3cc[nH]c(=O)c3c(Nc3ccc(C4CN(C)C4)cc3)n2)n1 [compound 146] | 4 | 
32 | C[C@@H](CO)Nc1nc(Nc2cnccn2)cc2ccn(CCN3CCOCC3)c(=O)c12 [compound 996] |  | 158
33 | CC1(Cn2ccc3cc(-c4cnc(N)nc4)nc(NC4COC4)c3c2=O)COC1 [compound 773, 6-(2-Aminopyrimidin-5-yl)-2-((3-methyloxetan-3-yl)methyl)-8-(oxetan-3-ylamino)-2,7-naphthyridin-1(2H)-one] |  | 67
34 | Cc1cc(Nc2nc(-c3cncc(NC4CC4)n3)cc3cc[nH]c(=O)c23)ccc1C1CCN(CCC#N)CC1 [compound 68] | 89 | 
35 | CNC(=O)C(C)N1CCC(c2ccc(Nc3nc(-c4cncc(OC)n4)cc4cc[nH]c(=O)c34)cc2C)CC1 (stereo not shown) [compound 173] | 11 | 
36 | CCn1ccc2cc(Nc3cnccn3)nc(NC3CCC(=O)CC3)c2c1=O [compound 969] |  | 81
37 | CC(C(N)=O)n1ccc2cc(-c3cnc(N)nc3)nc(NC(C)(C)C)c2c1=O (stereo not shown) [compound 665] |  | 5
38 | CC(C)n1ccc2cc(Nc3cnccn3)nc(N[C@H]3CC[C@H](O)CC3)c2c1=O [compound 965] |  | 61
39 | COCCNC(=O)c1ccc(Nc2nc(-c3cncc(OC)n3)cc3cc[nH]c(=O)c23)cc1 [compound 59] | 168 | 
40 | CC(C)(C)Nc1nc(Nc2cc(N3CC(O)C3)ncn2)cc2ccn(CCO)c(=O)c12 [compound 631] |  | 233
41 | COc1cncc(-c2cc3cc[nH]c(=O)c3c(Nc3ccc(C4CCN(C(C)C(=O)NCCO)CC4)c(C)c3)n2)n1 (stereo not shown) [compound 122] | 92 | 
42 | NC(=O)Cn1ccc2cc(Nc3cnccn3)nc(NC3CCC3)c2c1=O [compound 754] |  | 12
43 | C[C@@H](CO)Oc1cc(Nc2cc3ccn(C[C@H](O)CO)c(=O)c3c(NC(C)(C)C)n2)ncn1 [compound 643, 8-(tert-butylamino)-2-((S)-2,3-dihydroxypropyl)-6-(6-((S)-1-hydroxypropan-2-yloxy)pyrimidin-4-ylamino)-2,7-naphthyridin-1(2H)-one] |  | 9
44 | CCN1CCC[C@H]1CNc1nc(Nc2cc(C)ccn2)cc2cc[nH]c(=O)c12 [compound 590] | 3500 | 
45 | Cc1cc(Nc2cc3ccn(CCO)c(=O)c3c(NC(C)(C)CO)n2)ncc1F [compound 498] | 76 | 
46 | CC(C)Nc1nc(Nc2cc(-c3cnn(C)c3)ccn2)cc2cc[nH]c(=O)c12 [compound 595] | 87.9 | 
47 | COc1cncc(-c2cc3cc[nH]c(=O)c3c(Nc3ccc(CCn4cncn4)cc3)n2)n1 [compound 24] | 122 | 

The remaining lines, values ahead:

Row | IC50 [nM] | IC50 (Caliper LabChip assay) [nM] | SMILES
48 | 1220 |  | CC(=O)N1CCC(c2ccc(Nc3nc(Nc4cnccn4)cc4ccn(C)c(=O)c34)cc2)CC1 [compound 345]
49 |  | 77.2 | [2H]C([2H])([2H])n1ccc2cc(Nc3cc(C)ccn3)nc(NC(C)(C)CO)c2c1=O [compound 1047]
50 |  | 23 | CCn1ccc2cc(Nc3cc(C)ccn3)nc(N[C@H]3CC[C@H](O)C3)c2c1=O [compound 945]
51 |  | 103 | Cn1cc2cc(Nc3nc(Nc4cnccn4)cc4ccn(CCO)c(=O)c34)ccc2n1 [compound 659]
52 | 153 |  | Cc1ccnc(Nc2cc3ccn(C)c(=O)c3c(NC(C)C)n2)c1 [compound 508]
53 |  | 1350 | CC(C)(C)Nc1nc(Nc2cc(C(C)(C)C)ccn2)cc2ccn(CCO)c(=O)c12 [compound 616]
54 | 237 |  | COCCn1ccc2cc(Nc3cc(C)ccn3)nc(NC(C)C)c2c1=O [compound 314]
55 | 75 |  | Cc1ccnc(Nc2cc3cc[nH]c(=O)c3c(NC(C)(C)C)n2)c1 [compound 494]
56 | 115 |  | Cc1ccnc(Nc2cc3cc[nH]c(=O)c3c(NCC(O)c3cccc(Cl)c3)n2)c1 (stereo not shown) [compound 496]
57 | 32 |  | Cc1ccnc(Nc2cc3cc[nH]c(=O)c3c(NC(C)C)n2)c1 [compound 490]
58 | 228 |  | COc1ccc(Nc2nc(Nc3cc(C)ccn3)cc3ccn(C)c(=O)c23)cc1 [compound 364]
59 |  | 50 | COc1cc(Nc2cc3ccn(CCO)c(=O)c3c(NC(C)(C)C)n2)ncn1 [compound 735]
60 |  | 568 | CCn1ccc2cc(Nc3cc(C)ccn3)nc(N[C@H](CO)C(C)(C)C)c2c1=O [compound 806]
61 | 270 |  | CCNC(=O)Cn1ccc2cc(Nc3cc(C)ccn3)nc(NC(C)C)c2c1=O [compound 316]
62 |  | 217 | CCn1ccc2cc(Nc3cc(C)ccn3)nc(NC(C)(C)CCO)c2c1=O [compound 782]
63 | 343 |  | Cc1ccnc(Nc2cc3cc[nH]c(=O)c3c(NC(C)C(C)C)n2)c1 (stereo not shown) [compound 268]
64 |  | 108 | Cc1ccnc(Nc2cc3ccn(CCO)c(=O)c3c(NC3CC3)n2)c1 [compound 817]
65 | 47 |  | CCn1ccc2cc(Nc3cc(C)ccn3)nc(N[C@H]3CC[C@@H](O)C3)c2c1=O [compound 424]
66 |  | 559 | CC(C)(C)Nc1nc(Nc2cc(-c3ccc4cn[nH]c4c3)ccn2)cc2ccn(CCO)c(=O)c12 [compound 850]
67 | 12 |  | Cc1ccnc(Nc2cc3ccn(CCO)c(=O)c3c(N[C@H]3CCOC3)n2)c1 [compound 369]
68 |  | 41 | [2H]C([2H])([2H])n1ccc2cc(Nc3cc(C)ccn3)nc(N[C@H]3CC[C@@H](CO)C3)c2c1=O [compound 985]
69 | 390 |  | Cc1ccc(Nc2cc3cc[nH]c(=O)c3c(Nc3ccc(CCN4CCCN(C)CC4)cc3)n2)nc1 [compound 552]
70 |  | 168 | Cc1c2ccc(Nc3nc(Nc4cnccn4)cc4ccn(CCO)c(=O)c34)cc2nn1C [compound 656]
71 | 98 |  | Cc1ccnc(Nc2cc3ccn(C)c(=O)c3c(N[C@H]3CCC[C@H]3O)n2)c1 (racemic) [compound 324]
72 |  | 19 | Cc1ccnc(Nc2cc3ccn(CCCO)c(=O)c3c(N[C@H]3CC[C@@H](O)CC3)n2)c1 [compound 947]
73 |  | 74 | CC(C)(O)Cc1ccnc(Nc2cc3ccn(CCO)c(=O)c3c(NC(C)(C)C)n2)c1 [compound 880]
